Ends that are not written are not given here. Peptide text beside a SMILES is read from it.
How the values were obtained:
[1] = test system: plasmid-encoded luciferase in HEK293 cells; assay: Transient transfection of luciferase expression plasmid (CMV promoter) with peptide, luciferase in cell lysates; conditions: for luciferase % of DMSO con-: peptide 2 μM, 24 hrs post-transfection, HEK293, relative to DMSO control; for inhibition of luciferase production (in words): peptide transfected with CMV-luciferase plasmid, HEK293, 24 hrs; for IC50: read-out: IC50 inhibition of plasmid-encoded luciferase levels, transfected together with the plasmid-DNA
[2] = test system: vaccinia virus; format: cell-based; conditions: for rpo22 mRNA levels (in words): normalized to GAPDH
[3] = test system: Escherichia coli; assay: Plasmid copy numbers and β-lactamase mRNA in transformed E. coli by real-time PCR; format: cell-based; conditions: normalized to E. coli single-copy gene
Description: Competent Escherichia coli cells were transformed with a plasmid containing an ampicillin resistance gene and peptide I24. After indicated time-points, total plasmid numbers and β-lactamase mRNA levels were determined by real-time PCR normalized to an E. coli single-copy gene.

[4] = test system: plasmid-encoded green fluorescence protein (GFP) in HEK293 cells; assay: Transfection of GFP expression plasmid, Western blot and GFP-positive cells; format: cell-based, human; conditions: 2 μM
[5] = test system: plasmid-encoded luciferase in COS-7 cells; assay: Transfection of CMV-luciferase plasmid in COS-7 cells, luciferase protein and mRNA; format: cell-based, African green monkey
Description: COS-7 African green monkey kidney cells were transfected with an expression plasmid driving luciferase under control of the CMV promoter and luciferase determined in cell lysates. For analysis of expression of luciferase mRNA, total RNA was isolated, treated with DNAse I and subjected to reverse transcription using random hexamers. Real-time PCR was performed with hydrolysis probes detecting luciferase and normalized to 18S rRNA transcript levels.
(§1) The cell lines African Green Monkey kidney cells CV-1 and COS-7, as well as the human breast cancer cell line MCF-7 and the human colon cancer cell lines HT-29 were transiently transfected with a plasmid containing luciferase under control of a CMV promoter and different concentrations of peptide I24.

[6] = test system: plasmid-encoded luciferase and neomycin resistance gene mRNA in HEK293 cells; assay: Real-time PCR of luciferase (CMV promoter) and neomycin resistance gene (early SV40 promoter) mRNA from one plasmid; format: cell-based, human; conditions: increasing concentration, 24 hrs, normalized against GAPDH
Description: HEK293 cells were transiently transfected in the presence of increasing concentrations of peptide I24 with an expression plasmid containing luciferase under control of the CMV promoter and the neomycin resistance gene under control of the early SV40 promoter. After 24 hrs, total RNA was isolated from the cells, digested with DNAse I to remove plasmid-DNA and subjected to reverse transcription. Quantitative real-time PCR analysis of luciferase and neomycin mRNA was performed using hydrolysis probes and normalized against GAPDH transcripts.

[7] = test system: Escherichia coli; assay: Colony formation of E. coli transformed with antibiotic resistance plasmid and peptide; format: cell-based
Description: Competent Escherichia coli cells were transformed with a plasmid containing an ampicillin resistance gene or a kanamycin resistance gene and either DMSO as vehicle control or I24. On the next day, number of colonies was reduced in the presence of peptide I24 compared to the vehicle control (FIG. 11).

[8] = test system: plasmid-encoded luciferase in HT-29 cells; assay: Transfection of CMV-luciferase plasmid in HT-29 cells; format: cell-based, human; conditions: HT-29, different concentrations
Description: as §1, with “[…].” for “I24.”

[9] = test system: plasmid-encoded luciferase in MCF-7 cells; assay: Transfection of CMV-luciferase plasmid in MCF-7 cells; format: cell-based, human; conditions: MCF-7, different concentrations
Description: as §1, with “[…].” for “I24.”

[10] = test system: luciferase under control of the truncated interleukin-8 (IL-8) promoter in HEK293 cells; assay: Transfection of luciferase under truncated IL-8 promoter, TNF-α stimulation; format: cell-based, human; conditions: 24 hrs post-transfection, TNF-α 6 hrs after transfection
Description: (§2) HEK293 cells were transiently transfected with a construct containing the luciferase coding region under control of the truncated interleukin-8 (IL-8) promoter and peptide I24 and stimulated with tumor necrosis factor (TNF)-α 6 hrs after transfection and analysed 24 hrs post-transfection for expression of luciferase in cell lysates and released IL-8 in the supernatants by ELISA.

[11] = test system: baculovirus encoding luciferase under control of the CMV promoter; assay: Baculovirus-mediated luciferase gene expression in HEK293 cells; format: cell-based; conditions: for baculovirus-mediated luciferase expression (in words): HEK293 pretreated for 10 minutes
Description: A baculovirus was generated with the luciferase coding region under control of the CMV promoter integrated in its viral genome. The baculovirus was applied to HEK293 cells pretreated for 10 minutes with DMSO or increasing concentrations of peptide I24, TAT and the fusion peptide TAT-I24. Luciferase expression is reduced in cells treated with cell-permeable fusion peptide TAT-I24 in a dose-dependent manner (FIG. 7a). Baculovirus-infected cells incubated with DMSO, TAT-I24 or TAT were stimulated with TNF-α and total RNA isolated from cells. After treatment of the RNA with DNAse I, reverse transcription was performed. Luciferase and IL-8 mRNA were analysed by real-time PCR.

[12] = test system: endogenous interleukin-8 in HEK293 cells; assay: Endogenous IL-8 release by ELISA in transfected, TNF-α-stimulated cells; format: cell-based, human; conditions: 24 hrs post-transfection
Description: as §2

[13] = test system: plasmid-encoded luciferase in CV-1 cells; assay: Transfection of CMV-luciferase plasmid in CV-1 cells; format: cell-based, African Green Monkey; conditions: CV-1, different concentrations
Description: as §1, with “[…].” for “I24.”

[14] = test system: lentivirus containing luciferase under control of the CMV promoter; assay: Lentivirus luciferase gene expression in HEK293 cells; format: cell-based; conditions: 20 μM, 48 hrs
Description: HEK293 cells were incubated with peptide I24, TAT-tagged peptide I24 (TAT-I24), or TAT followed by addition of lentivirus containing luciferase under control of the CMV promoter for 48 hrs.

[15] = test system: herpes simplex virus; assay: Herpes simplex virus plaque-formation assay; format: cell-based
Description: Cells were infected with herpes simplex virus and replication of virus determined by a plaque-formation assay (see examples above). Replication of herpes simplex virus was inhibited by TAT-I24 in a dose-dependent manner.

[16] = test system: adenovirus encoding luciferase and GFP; assay: Adenovirus gene expression and replication in HEK293 cells; format: cell-based
Description: HEK293 cells were treated with increasing concentrations of the peptides I24, TAT-I24 or TAT alone and incubated with adenovirus encoding luciferase and green fluorescence protein (GFP) under control of the CMV promoter. […] HEK293 cells were treated with vehicle control, the peptide I24, TAT-I24 or TAT alone (20 μM) and adenovirus particles encoding luciferase and GFP. After 72 hrs, RNA was isolated and luciferase and GFP as well as adenovirus hexon transcript levels analysed by real-time PCR and normalized to GAPDH. […] DNA was isolated from supernatants and adenovirus hexon DNA quantified using real-time PCR (FIG. 8c).

[17] = TNF-α stimulated, real-time PCR

FYACFAC [I24 M10]
luciferase % of DMSO con- [1]: 104.2%

CLAFYACFAC [I24 M5]
luciferase % of DMSO con- [1]: 10.6%

SLAFYACFAC [I24 M6]
luciferase % of DMSO con- [1]: 41.9%

SVFYACFC [I24 M31]
luciferase % of DMSO con- [1]: 135.5%

GRKKRRQRRRPPQ [TAT, reference compound]
rpo22 mRNA levels (in words) ([2]; 24 hrs after infection): no inhibition
inhibition of luciferase production (in words) [1]: inactive

CLAYFCFC [I24 M16]
luciferase % of DMSO con- [1]: 68.7%

CLAFRACFC [I24 M27]
luciferase % of DMSO con- [1]: 110.9%

FYCFC [I24 M18]
luciferase % of DMSO con- [1]: 107.8%

SVFYACFAC [I24_M8]
activity in the cellular transfection assay (in words) ([1]; 2 μM): no inhibitory effect
luciferase % of DMSO con- [1]: 103.7%

CLAFYACRC [I24 M30]
luciferase % of DMSO con- [1]: 116.5%

WSEQCFTCWW [reference compound]
activity in the cellular transfection assay (in words) ([1]; 2 μM): no inhibitory effect
luciferase % of DMSO con- [1]: 106.2%

CLLYFCFC [I24 M17]
luciferase % of DMSO con- [1]: 16.7%

CLAFYCFC [I24 M13]
luciferase % of DMSO con- [1]: 64.9%

CLAFYACFWC [I24 M20]
luciferase % of DMSO con- [1]: 5.6%

CLARYACFC [I24 M26]
luciferase % of DMSO con- [1]: 128.6%

FYACFC [I24 M9]
luciferase % of DMSO con- [1]: 103.6%

CLAFYAC [I24 M2]
luciferase % of DMSO con- [1]: 110.1%

FYCFAC [I24_M19]
luciferase % of DMSO con- [1]: 118.6%

CLAFYACFCGGGCLAFYACFC [I24 dimer]
luciferase % of DMSO con- [1]: 3.8%
IC50 [1]: 90 nM

CLAFYACFC (cysteine pairing not given here) [I24]
plasmid copy numbers ([3]; 4 and 6 hrs after transformation): downregulated
β-lactamase mRNA levels [3]: downregulated
GFP production by Western blot [4]: reduced
number of GFP-positive cells [4]: reduced
inhibition of the reporter gene luciferase ([5]; COS-7, different concentrations): Inhibition of the reporter gene luciferase was observed
luciferase protein levels ([5]; COS-7, different incubation times): downregulated
luciferase mRNA levels ([5]; COS-7, normalized to 18S rRNA, different incubation times): downregulated
reduction of luciferase transcripts (CMV promoter) [6]: 87%
reduction of neomycin mRNA levels (early SV40 promoter) [6]: about 50%
colony formation, peptide applied after transformation ([7]; applied after transformation is completed): inactive
number of colonies ([7]; peptide applied simultaneously with plasmid (ampicillin or kanamycin resistance gene)): reduced
inhibition of the reporter gene luciferase [8]: Inhibition of the reporter gene luciferase was observed
inhibition of the reporter gene luciferase [9]: Inhibition of the reporter gene luciferase was observed
TNF-α-induced luciferase expression (IL-8 promoter) [10]: reduced TNF-α-induced luciferase expression
baculovirus-mediated luciferase expression (in words) [11]: only weakly active
release of IL-8 (ELISA) [12]: not affected
inhibition of the reporter gene luciferase [13]: Inhibition of the reporter gene luciferase was observed
inhibition of reporter gene expression ([1]; 2 μM): approximately 90%
inhibition of reporter gene expression ([1]; 20 μM): 90%
luciferase % of DMSO con- [1]: 12.2%
inhibition of luciferase production (in words) [1]: dose-dependent inhibition of luciferase production

CLAFYARFC [I24 M29]
luciferase % of DMSO con- [1]: 56.3%

CC(C)C[C@H](NC(=O)[C@H](CS)NC(=O)[C@H](CCC(N)=O)NC(=O)[C@@H]1CCCN1C(=O)[C@@H]1CCCN1C(=O)[C@H](CCCNC(=N)N)NC(=O)[C@H](CCCNC(=N)N)NC(=O)[C@H](CCCNC(=N)N)NC(=O)[C@H](CCC(N)=O)NC(=O)[C@H](CCCNC(=N)N)NC(=O)[C@H](CCCNC(=N)N)NC(=O)[C@H](CCCCN)NC(=O)[C@H](CCCCN)NC(=O)[C@H](CCCNC(=N)N)NC(=O)CN)C(=O)N[C@@H](C)C(=O)N[C@@H](Cc1ccccc1)C(=O)N[C@@H](Cc1ccc(O)cc1)C(=O)N[C@@H](C)C(=O)N[C@@H](CS)C(=O)N[C@@H](Cc1ccccc1)C(=O)N[C@@H](CS)C(=O)O [TAT-I24] (H-GRKKRRQRRRPPQCLAFYACFC-OH; N-terminus and C-terminus assumed)
reduction in luciferase levels, lentivirus [14]: 75%
replication of herpes simplex virus [15]: inhibited
inhibition of virus replication, vaccinia virus ([2]; 20 μM): > 90%
reduction of amount of viral DNA in the supernatants ([2]; 20 μM, 24 hrs after infection): > 90%
reduction of number of plaque forming units (PFU) in the supernatants ([2]; 20 μM, plaque assay using BSC-40 cells): > 90%
rpo22 mRNA levels (in words) ([2]; 24 hrs after infection): dose-dependently inhibited
baculovirus-mediated luciferase expression (in words) [11]: reduced
IL-8 mRNA levels (cellular gene) [11, 17]: remained unaffected
luciferase mRNA (baculovirus-encoded) [11, 17]: down-regulated
luciferase, GFP and adenovirus hexon transcript levels ([16]; 20 μM, 72 hrs, normalized to GAPDH): inhibition of all three adenovirus-encoded genes
cell detachment of virus-infected HEK293 cells ([16]; 96 hrs after infection, crystal violet staining): inhibition of cell detachment
IC50 ([16]; HEK293, read-out: IC50 luciferase protein levels, adenovirus): 6000 nM
adenovirus particles released to supernatants (hexon DNA) ([16]; real-time PCR of supernatant DNA): inhibits formation and release of adenovirus particles to supernatants
luciferase % of DMSO con- [1]: 1.8%
inhibition of luciferase production (in words) [1]: more potent inhibition of luciferase expression
IC50 [1]: 60 nM

CLAFYRCFC [I24 M28]
luciferase % of DMSO con- [1]: 93.4%

SLAFYASFS [I24 M4]
luciferase % of DMSO con- [1]: 100.5%

CLAFYCFAC [I24 M14]
luciferase % of DMSO con- [1]: 63.2%

SAFYACFAC [I24 M7]
luciferase % of DMSO con- [1]: 75.9%

CAAFYACFC [I24 M11]
luciferase % of DMSO con- [1]: 32.2%

CLAFYACLWC [I24 M22]
luciferase % of DMSO con- [1]: 6.8%

CLVFYACFC [I24 M12]
luciferase % of DMSO con- [1]: 11.8%
